Test results from patent US11162944B2, “Compositions and methods” (priority 2015, dated 2021).
Marks after values point to notes of the source that are not given here.

Columns and labels:
[1] = tested on: biomarker (antibody) in serum from patients with suspected TB (tuberculosis); experiment: ELISA of 64 serum samples on three synthetic antigens (Example 6); type: binding, human; conditions: dilution 1 in 80
Protocol: ELISA assays were carried out as known to those practiced in the art using 96 well plates. In the first procedure, the ELISA assay was carried out on 96-well microplates and the purified antigens were dissolved in n-hexane at a concentration of 62.5 μg/mL. The antigen solution was diluted and 50 μL was placed in each well. The plates were left to dry at room temperature overnight. Blocking was done with 0.5% casein/PBS (400 μL/well) and the plates were left to incubate at 25° C. for 1 h. The casein was aspirated using the LT-3500 plate washer and the plates flicked dry. Then the serum (1:20 dilution in 0.5% casein/PBS, pH 7.4) was added to the plate (50 μL/well) and left to incubate at 25° C. for 1 h. The serum was aspirated and washed three times with (casein/PBS, 400 μL/well) using the same plate washer and the plates were flicked dry again. After that, the secondary antibody, in the example given IgG Fc (1:1000 dilution in 0.5% casein/PBS) was added to the plate (50 μL/well) and the plates were left to incubate at 25° C. for 30 min. The plates were washed three times again with casein/PBS (400 μL/well) and dried. Then, the OPD substrate was added to the plates, which were left to incubate at 25° C. for 30 min. Finally, 2.5 M H2SO4 (50 μL/well) was added and the absorbances of each well were read at 492, 450 and 630 nm using an LT-4000 plate reader.
Human serum used in this work was from the WHO sample bank. In this case, all the patients had presented at a hospital with the symptoms of TB. Clinical diagnosis was made on the basis of a series of standard assays.
All measurements were taken as four replicates unless otherwise stated. These were averaged to provide the data in the tables which are for the value at 492 nm.
A set of 64 samples of serum from patients attending a clinic with suspected TB (tuberculosis) in a high burden TB population was examined using ELISA. Samples 1-9 had been diagnosed as positive for infection with tuberculosis (TB+) on the basis of a range of assays including sputum smear and culture, and samples 10-64 as negative for infection with tuberculosis (TB−). An ELISA assay was carried out with three synthetic antigens having the structures:
Cut-off values were set to identify all the positive samples with all three antigens, and the false positives were then identified in Table 3. […] 53 of the 55 negatives were correctly identified giving a specificity of 96%. The shaded results denote a result which is above the cut-off set for that particular antigen assay.

wild-type BMDCs = experiment: IL-6 secretion by bone marrow-derived dendritic cells, cytokine-specific ELISA; type: cell-based, mice; conditions: antigens at 100 μg/ml coated on plate, ISO as solvent, FIG. 1
Protocol: The concentrations of cytokines in the cell-free medium from stimulation of bone marrow-derived dendritic cells were determined using standard cytokine-specific ELISA. BMDCs were generated from mice, by flushing out the femurs of mice into complete medium and pipetting vigorously to make a single-cell suspension. The glycolipids were coated to the bottom of 96 micro-well plates (100 μg/ml). BMDCs were added, and after 6 or 48 hours of incubation the supernatants were harvested.
The first experiment was the IL-6 secretion by wild-type BMDCs from mice using compounds B, D, C and H (shown below) as antigens at 100 μg/ml, and isopropyl alcohol (ISO) as a solvent. Commercial trehalose-6,6-dimycolate (TDM), lipopolysaccharides (LPS), and trehalose-6,6-dibehenate (TDB) were used as a controls.

CCCCCCCCCCCCCCCCCCCCCCCC[C@@H](C(=O)OC[C@H]1O[C@H](OC)[C@@H](O)[C@@H]1O)[C@H](O)CCCCCCCCCCCC1CC1CCCCCCCCCCCCCC[C@H]1C[C@H]1CCCCCCCCCCCCCCCCCCCC (some centres unmarked) [Antigen 3]
ELISA absorbance at 492 nm ([1]; sample 1 (TB+)): 0.74*
ELISA absorbance at 492 nm ([1]; sample 2 (TB+)): 0.76*
ELISA absorbance at 492 nm ([1]; sample 3 (TB+)): 0.99*
ELISA absorbance at 492 nm ([1]; sample 4 (TB+)): 0.97*
ELISA absorbance at 492 nm ([1]; sample 5 (TB+)): 0.99*
ELISA absorbance at 492 nm ([1]; sample 6 (TB+)): 1.39*
ELISA absorbance at 492 nm ([1]; sample 7 (TB+)): 1.97*
ELISA absorbance at 492 nm ([1]; sample 8 (TB+)): 1.67*
ELISA absorbance at 492 nm ([1]; sample 9 (TB+)): 1.09*
ELISA absorbance at 492 nm ([1]; sample 10 (TB−)): 0.59
ELISA absorbance at 492 nm ([1]; sample 11 (TB−)): 0.92*
ELISA absorbance at 492 nm ([1]; sample 12 (TB−)): 0.84*
ELISA absorbance at 492 nm ([1]; sample 13 (TB−)): 0.60
ELISA absorbance at 492 nm ([1]; sample 14 (TB−)): 1.30*
ELISA absorbance at 492 nm ([1]; sample 15 (TB−)): 0.64
ELISA absorbance at 492 nm ([1]; sample 16 (TB−)): 0.56
ELISA absorbance at 492 nm ([1]; sample 17 (TB−)): 0.81*
ELISA absorbance at 492 nm ([1]; sample 18 (TB−)): 0.68
ELISA absorbance at 492 nm ([1]; sample 19 (TB−)): 0.71*
ELISA absorbance at 492 nm ([1]; sample 20 (TB−)): 1.03*
ELISA absorbance at 492 nm ([1]; sample 21 (TB−)): 0.61
ELISA absorbance at 492 nm ([1]; sample 22 (TB−)): 0.66
ELISA absorbance at 492 nm ([1]; sample 23 (TB−)): 0.81*
ELISA absorbance at 492 nm ([1]; sample 24 (TB−)): 0.62
ELISA absorbance at 492 nm ([1]; sample 25 (TB−)): 0.21
ELISA absorbance at 492 nm ([1]; sample 26 (TB−)): 0.72*
ELISA absorbance at 492 nm ([1]; sample 27 (TB−)): 0.61
ELISA absorbance at 492 nm ([1]; sample 28 (TB−)): 0.38
ELISA absorbance at 492 nm ([1]; sample 29 (TB−)): 0.41
ELISA absorbance at 492 nm ([1]; sample 30 (TB−)): 0.39
ELISA absorbance at 492 nm ([1]; sample 31 (TB−)): 0.51
ELISA absorbance at 492 nm ([1]; sample 32 (TB−)): 0.91*
ELISA absorbance at 492 nm ([1]; sample 33 (TB−)): 0.42
ELISA absorbance at 492 nm ([1]; sample 34 (TB−)): 0.49
ELISA absorbance at 492 nm ([1]; sample 35 (TB−)): 0.38
ELISA absorbance at 492 nm ([1]; sample 36 (TB−)): 0.28
ELISA absorbance at 492 nm ([1]; sample 37 (TB−)): 0.55
ELISA absorbance at 492 nm ([1]; sample 38 (TB−)): 0.52
ELISA absorbance at 492 nm ([1]; sample 39 (TB−)): 0.35
ELISA absorbance at 492 nm ([1]; sample 40 (TB−)): 0.35
ELISA absorbance at 492 nm ([1]; sample 41 (TB−)): 0.66
ELISA absorbance at 492 nm ([1]; sample 42 (TB−)): 0.55
ELISA absorbance at 492 nm ([1]; sample 43 (TB−)): 0.30
ELISA absorbance at 492 nm ([1]; sample 44 (TB−)): 0.98*
ELISA absorbance at 492 nm ([1]; sample 45 (TB−)): 0.43
ELISA absorbance at 492 nm ([1]; sample 46 (TB−)): 0.31
ELISA absorbance at 492 nm ([1]; sample 47 (TB−)): 0.56
ELISA absorbance at 492 nm ([1]; sample 48 (TB−)): 0.32
ELISA absorbance at 492 nm ([1]; sample 49 (TB−)): 0.51
ELISA absorbance at 492 nm ([1]; sample 50 (TB−)): 0.37
ELISA absorbance at 492 nm ([1]; sample 51 (TB−)): 0.21
ELISA absorbance at 492 nm ([1]; sample 52 (TB−)): 0.36
ELISA absorbance at 492 nm ([1]; sample 53 (TB−)): 0.26
ELISA absorbance at 492 nm ([1]; sample 54 (TB−)): 0.27
ELISA absorbance at 492 nm ([1]; sample 55 (TB−)): 0.27
ELISA absorbance at 492 nm ([1]; sample 56 (TB−)): 0.73*
ELISA absorbance at 492 nm ([1]; sample 57 (TB−)): 0.37
ELISA absorbance at 492 nm ([1]; sample 58 (TB−)): 0.41
ELISA absorbance at 492 nm ([1]; sample 59 (TB−)): 0.45
ELISA absorbance at 492 nm ([1]; sample 60 (TB−)): 0.44
ELISA absorbance at 492 nm ([1]; sample 61 (TB−)): 0.41
ELISA absorbance at 492 nm ([1]; sample 62 (TB−)): 0.30
ELISA absorbance at 492 nm ([1]; sample 63 (TB−)): 0.25
ELISA absorbance at 492 nm ([1]; sample 64 (TB−)): 0.29

CCCCCCCCCCCCCCCCCCCCCCCCC(C(=O)OCC1OC(OCC2OC(OC)C(O)C2OC2OC(COC(=O)C(CCCCCCCCCCCCCCCCCCCCCCCC)C(O)CCCCCCCCCCCC3CC3CCCCCCCCCCCCCCC3CC3CCCCCCCCCCCCCCCCCCCC)C(O)C2O)C(O)C1O)C(O)CCCCCCCCCCCC1CC1CCCCCCCCCCCCCCC1CC1CCCCCCCCCCCCCCCCCCCC (centres unmarked) [H]
IL-6 secretion by wild-type BMDCs (wild-type BMDCs): good level of stimulation
